One data set has as its system P-gp. Description: Apparent permeability in MDCK cells harboring Pgp. The class given is ADME, cell-based, Canis lupus familiaris. Conditions: dog, MDCK-MDR1.
Data set [1] has as its system Plasma. Description: Unbound drug uptake in plasma of Sprague-Dawley rat at 100 mg/kg, po. As to conditions: in vivo. The class given is ADME, organism-based.
For data set [2], the system named is Plasma. Description: Unbound drug uptake in plasma of Sprague-Dawley rat at 300 mg/kg, po. Conditions: in vivo. The class given is ADME, organism-based.
In data set [3] the test system is Plasma. In words: Drug uptake in Sprague-Dawley rat plasma at 30 mg/kg, po. The class given is ADME, organism-based. Conditions: in vivo.
The nature of data set [4]: Oral bioavailability in rat at 100 mg/kg administered via gavage by LC-MS/MS analysis. The class given is ADME, organism-based. As to conditions: in vivo.
The test system of data set [5] is Plasma. In words: Drug uptake in plasma of formalin-induced nociception Sprague-Dawley rat model at 100 mg/kg, po. As to conditions: in vivo. The class given is ADME, organism-based.
Data set [6] concerns Plasma. Description: Unbound drug uptake in plasma of formalin-induced nociception Sprague-Dawley rat model at 30 mg/kg, po. The class given is ADME, organism-based. As to conditions: in vivo.
Data set [7] deals with Plasma. In words: Drug uptake in plasma of formalin-induced nociception Sprague-Dawley rat model at 30 mg/kg, po. Conditions: in vivo. The class given is ADME, organism-based.
In data set [8] the test system is Plasma. Description: Drug uptake in plasma of Sprague-Dawley rat at 300 mg/kg, po. Conditions: in vivo. The class given is ADME, organism-based.
The nature of data set [9]: Ratio of drug uptake in brain to plasma of formalin-induced nociception Sprague-Dawley rat model at 100 mg/kg, po. The class given is ADME, organism-based. As to conditions: read-out: BPR.
Data set [10] concerns Plasma. In words: Unbound drug uptake in plasma of formalin-induced nociception Sprague-Dawley rat model at 100 mg/kg, po. The class given is ADME, organism-based. Conditions: in vivo.
Data set [11] can be described thus: Aqueous solubility of compound in PBS buffer. The class given is physicochemical.
The nature of data set [12]: Volume of distribution at steady state in rat at 0.5 mg/kg, iv by LC-MS/MS analysis. As to conditions: in vivo, read-out: Vdss. The class given is ADME, organism-based.
Data set [13] concerns Plasma. In words: Unbound drug uptake in plasma of Sprague-Dawley rat at 30 mg/kg, po. The class given is ADME, organism-based. As to conditions: in vivo.
Data set [14] concerns Plasma. In words: Drug uptake in plasma of Sprague-Dawley rat at 100 mg/kg, po. Conditions: in vivo. The class given is ADME, organism-based.
A short description of data set [15]: Oral bioavailability in rat at 10 mg/kg administered via gavage by LC-MS/MS analysis. The class given is ADME, organism-based. Conditions: in vivo.
Data set [16] is described as follows: Oral bioavailability in rat at 40 mg/kg administered via gavage by LC-MS/MS analysis. As to conditions: in vivo. The class given is ADME, organism-based.
Data set [17] in a line: Oral bioavailability in rat at 30 mg/kg administered via gavage by LC-MS/MS analysis. The class given is ADME, organism-based. Conditions: in vivo.

Structures are written as SMILES. Values after ≈ are worked out from the molar mass of the structure shown.

What is called Papp is a coefficient for how fast a substance crosses the barrier. On to `O=C(COc1cccc2cccnc12)Nc1ccccc1N1CCOCC1`, for which, in the data set with P-gp, the Papp was found to be 37 ×10⁻⁶ cm/s.
For orientation: bioavailability means dose-corrected exposure relative to a reference, in per cent. Usually solubility stands for how much of the substance goes into solution per volume. Take `Nc1cccnc1-c1cccc(C(=O)Nc2cccc(C(F)(F)F)c2-c2cccnc2)c1`: the “Cp(f)” value was determined as 322 nM with Plasma [1]; 714 nM in the data set with Plasma [2]; 61 nM with Plasma [6]; 281 nM with Plasma [10]; 98 nM in the data set with Plasma [13]. Moreover, the concentration in the data set on Plasma [3] was found to be 549 nM; in the data set on Plasma [5], 1570 nM; in the data set with Plasma [7] it was 342 nM; with Plasma [8], 3990 nM; in the data set with Plasma [14], 1800 nM. The compound also returned a bioavailability in [4] of 73%. The Kp in [9] came out at 0.36. In addition, in data set [11], the concentration in solution (solubility) was 470 µM (≈ 204 µg/mL). Further, in [12], the Vd is 1.29 L/kg.
In [11], `O=C(Nc1cccc(C(F)(F)F)c1-c1cccnc1)c1cccc(-c2ncccc2Cl)c1` displayed a solubility of 10 µM (≈ 4.54 µg/mL). In data set [12], the Vd worked out at 1.27 L/kg. The compound also gave a bioavailability in data set [15] of 58%.
Regarding `O=C(Nc1cccc(C(F)(F)F)c1-c1cccnc1)c1cccc(-c2ncccc2C(F)(F)F)c1`, in data set [16], the bioavailability came to 26%. This compound registered a solubility in data set [11] of 22 µM (≈ 10.7 µg/mL). Moreover, the Vd in data set [12] is 0.57 L/kg.
As for `O=C(Nc1cccc(C(F)(F)F)c1-c1cccnc1)c1cccc(-c2ncccc2OC(F)F)c1`, in data set [17], the bioavailability is 92%. In the data set with P-gp, the Papp was found to be 31 ×10⁻⁶ cm/s. Further, in [11], the concentration in solution (solubility) came to 56 µM (≈ 27.2 µg/mL). Also, the Vd in data set [12] was 3 L/kg.
In turn, `O=C(Nc1cccc(C(F)(F)F)c1-c1cccnc1)c1cccc(-c2ccccn2)c1` had a solubility in data set [11] of 12 µM (≈ 5.03 µg/mL). In addition, the Vd in data set [12] is 1.4 L/kg. In data set [15], this compound yielded a bioavailability of 54%.

The values are drawn from ChEMBL document CHEMBL4052739, “Discovery of a biarylamide series of potent, state-dependent NaV1.7 inhibitors” (Bioorg Med Chem Lett, 2017).
